Where two headings read alike, the source gives them in different places. Where a SMILES comes first, the peptide text is derived from it.
Experiments:
NCI-1299 cells = experiment: WST-1 cell viability, NCI-H1299 lung cancer cells; type: cell-based
Description: (§1) All commercial cell lines were purchased at ATCC (LGC Standards SARL, France). Cells were seeded in 96-well plates according to their optimal seeding density, varying between 5.000 and 10.000 cells/well. After attachment overnight, 10-point serial titrations (1:5) were prepared in their equivalent complete media as recommended by ATCC, starting from the 10 mM stock solutions. For doxorubicin comprising prodrugs dilutions started from 100 μM, while for the parent compound doxorubicin dilutions started at 10 μM. […] Seventy-two hours later, compounds were removed together with the supernatants and cells were washed once with PBS to remove excess drugs.
(§2) The WST-1 assay for cell proliferation and viability (Roche, Switzerland) was performed according to manufacturer's protocol. Absorbances were measured at 4 hrs using a Perkin Elmer Ensight multiplate reader, equipped with Kaleido 2.0 software (Perkin Elmer, USA). Cell viability was expressed as a percentage compared to non-treated cells. Absolute IC50 values were extrapolated from a non-linear fitting following the Sigmoidal-4PL regression method using Graphpad Prism 7.0. Likewise, maximal efficacy was determined as 100% minus the cell viability determined when cells are incubated in the presence of a compound. For instance, if 20% of the cells survive incubation in the presence of a compound, then the maximal efficacy of that compound is 100%-20%=80%.
(§3) Selectivity indices (SI) were defined as the ratio of the concentration of drug required to kill 50% of the cells in normal (control, non-cancer) cells, divided by the concentration required to exert the same efficacy in tumor cells: SI=IC50 (control cell)/IC50 (cancer cell), or SI=^HME-1IC50/cancer IC50.

[1] = test system: Human umbilical vein endothelial cells (HUVEC); experiment: WST-1 cell viability, normal HUVEC cells; type: cell-based; details: 72 hrs
Description: as §1, §2, §3

HME-1 cells = experiment: WST-1 cell viability, normal HME-1 cells; type: cell-based, human; details: for IC50: read-out: Absolute IC50
Description: as §1, §2, §3

NCI-H292 cells = experiment: WST-1 cell viability, NCI-H292 lung cancer cells; type: cell-based
Description: as §1, §2, §3

A2058 cells = experiment: WST-1 cell viability, A2058 melanoma cells; type: cell-based; details: for IC50: read-out: Absolute IC50
Description: as §1, §2, §3

[2] = test system: U87 MG glioblastoma cells subcutaneously implanted in nude NMRI mice; experiment: In vivo activity of PhAc-ALLP-Dox on U87 MG glioblastoma xenograft; set-up: species or system mouse; details: 30 mg/kg iv, once per week, four administrations
Description: The in vivo efficacy of PhAc-ALLP-Dox was tested in a mouse GBM model. U87 MG glioblastoma cells were subcutaneously (SC) implanted in nude NMRI mice. In total, 32 adult (9-10 weeks old) nude female NMRI mice (Janvier, France) were subjected to SC tumor cell grafting in the right flank. In total, 5×10^6 U87 MG cells resuspended in PBS plus Matrigel (1:1) were injected in 200 uL final volume. As soon as the tumors were palpable and reached the volume of 200 mm3 the treatment was started. At day zero, mice were randomly divided into 4 groups, based on the tumor volume, in order to have the following experimental sub-cohorts: • control group receiving the vehicle (PBS pH7.2) with a dose of 5 ml/kg, intravenously (iv), once per week (QW); • PhAc-ALLP-Dox (30 mg/kg iv, QW); • PhAc-ALGP-Dox (154 mg/kg iv, QW); • Dox (5 mg/kg iv, QW).
Treatments were performed once per week for a total of four tail vein administrations/injections (on days 1, 7, 14 and 21). One extra week of observation followed the active treatment phase. During the experiment, tumor volume was measured two times a week and was assessed three-dimensionally with a digital caliper (Mitutoyo, Illinois) using the following formula:
V=4/3π×[(d/2)^2×(D/2)], where d is the minor tumor axis and D is the major tumor axis.

U-87 MG cells = experiment: WST-1 cell viability, U-87 MG glioblastoma cells; type: cell-based; details: for IC50: read-out: Absolute IC50
Description: as §1, §2, §3

A-172 cells = experiment: WST-1 cell viability, A-172 glioblastoma cells; type: cell-based; details: for IC50: read-out: Absolute IC50
Description: as §1, §2, §3

MIA PaCa-2 cells = experiment: WST-1 cell viability, MIA PaCa-2 pancreatic cancer cells; type: cell-based
Description: as §1, §2, §3

MDA-MB-468 cells = experiment: WST-1 cell viability, MDA-MB-468 triple negative breast cancer cells; type: cell-based
Description: as §1, §2, §3

DU145 cells = experiment: WST-1 cell viability, DU145 prostate cancer cells; type: cell-based
Description: as §1, §2, §3

HCT-116 cells = experiment: WST-1 cell viability, HCT-116 colorectal cancer cells; type: cell-based
Description: as §1, §2, §3

MDA-MB-231 cells = experiment: WST-1 cell viability, MDA-MB-231 triple negative breast cancer cells; type: cell-based; details: for IC50: read-out: Absolute IC50
Description: as §1, §2, §3

## COc1cccc2c1C(=O)c1c(O)c3c(c(O)c1C2=O)C[C@@](O)(C(=O)CO)C[C@@H]3O[C@H]1C[C@H](NC(=O)[C@@H]2CCCN2C(=O)[C@H](CC(C)C)NC(=O)[C@H](CC(C)C)NC(=O)[C@H](C)NC(=O)CP(=O)(O)O)[C@H](O)[C@H](C)O1 [PhAc-ALLP-Dox, PhAc-ALLP-Doxorubicin] (HELM PEPTIDE1{[O=C(CP(=O)(O)O)[*:2]].A.L.L.P.[COc1cccc2c1C(=O)c1c(O)c3c(c(O)c1C2=O)C[C@@](O)(C(=O)CO)C[C@@H]3O[C@H]1C[C@H](N[*:1])[C@H](O)[C@H](C)O1]}$$$$V2.0)
NCI-1299 cells; NCI-1299 (NSCLC) vs HME-1 (Table 3)
  SI = HME-1 IC50/cancer IC50: 27.39
NCI-1299 cells; NCI-1299 (NSCLC), 72 hrs, WST-1 (Table 1), read-out: Absolute IC50
  IC50: 1.35 µM
NCI-1299 cells; NCI-1299 (NSCLC), 72 hrs, WST-1 (Table 2)
  Maximal efficacy, cytotoxicity (%) at 100 μM: 70.15%
[1]; WST-1 (Table 4), read-out: Absolute IC50
  IC50: 41.6 µM
[1]; WST-1 (Table 5)
  Maximal efficacy: 53.1%
HME-1 cells; HME-1 normal cells against themselves (Table 3)
  SI = HME-1 IC50/cancer IC50: 1.00
HME-1 cells; HME-1 normal cells, 72 hrs continuous drug exposure, WST-1 (Table 1)
  IC50: 36.9 µM
HME-1 cells; HME-1 normal cells, 72 hrs, WST-1 (Table 4)
  IC50: 36.9 µM
HME-1 cells; HME-1 normal cells, 72 hrs, WST-1, cytotoxicity at highest concentration (Table 5)
  Maximal efficacy: 59.5%
NCI-H292 cells; NCI-H292 (NSCLC) vs HME-1 (Table 3)
  SI = HME-1 IC50/cancer IC50: 6.30
NCI-H292 cells; NCI-H292 (NSCLC), 72 hrs, WST-1 (Table 1), read-out: Absolute IC50
  IC50: 5.86 µM
NCI-H292 cells; NCI-H292 (NSCLC), 72 hrs, WST-1 (Table 2)
  Maximal efficacy, cytotoxicity (%) at 100 μM: 55.15%
A2058 cells; A2058 (Melanoma) vs HME-1 (Table 3)
  SI = HME-1 IC50/cancer IC50: 298.19
A2058 cells; A2058 (Melanoma), * towards HUVEC cells (Table 6)
  SI = HUVEC IC50 / cancer IC50: *336.1
A2058 cells; A2058 (Melanoma), selectivity towards HME-1 cells (Table 6)
  SI = normal IC50 / cancer IC50: 298.2
A2058 cells; A2058 (Melanoma), 72 hrs, WST-1 (Table 1)
  IC50: 0.12 µM
A2058 cells; A2058 (Melanoma), 72 hrs, WST-1 (Table 2)
  Maximal efficacy, cytotoxicity (%) at 100 μM: 97.56%
A2058 cells; A2058 (Melanoma), 72 hrs, WST-1 (Table 4)
  IC50: 0.12 µM
A2058 cells; A2058 (Melanoma), 72 hrs, WST-1 (Table 5)
  Maximal efficacy: 97.6%
[2]
  Tumor volume compared to the untreated control group: importantly reduced the tumor volume
U-87 MG cells; U-87 MG (GBM) vs HME-1 (Table 3)
  SI = HME-1 IC50/cancer IC50: 128.53
U-87 MG cells; U-87 MG (GBM), * towards HUVEC cells (Table 6)
  SI = HUVEC IC50 / cancer IC50: *144.9
U-87 MG cells; U-87 MG (GBM), ** towards hiPSCs (iAstro) (Table 6)
  SI = iAstro IC50 / cancer IC50: **14.1
U-87 MG cells; U-87 MG (GBM), selectivity towards HME-1 cells (Table 6)
  SI = normal IC50 / cancer IC50: 128.5
U-87 MG cells; U-87 MG (GBM), 72 hrs, WST-1 (Table 1)
  IC50: 0.29 µM
U-87 MG cells; U-87 MG (GBM), 72 hrs, WST-1 (Table 2)
  Maximal efficacy, cytotoxicity (%) at 100 μM: 94.35%
U-87 MG cells; U-87 MG (GBM), 72 hrs, WST-1 (Table 4)
  IC50: 1.44 µM
U-87 MG cells; U-87 MG (GBM), 72 hrs, WST-1 (Table 5)
  Maximal efficacy: 97.1%
A-172 cells; A-172 (GBM) vs HME-1 (Table 3)
  SI = HME-1 IC50/cancer IC50: 30.54
A-172 cells; A-172 (GBM), * towards HUVEC cells (Table 6)
  SI = HUVEC IC50 / cancer IC50: *34.4
A-172 cells; A-172 (GBM), ** towards hiPSCs (iAstro) (Table 6)
  SI = iAstro IC50 / cancer IC50: **15.8
A-172 cells; A-172 (GBM), selectivity towards HME-1 cells (Table 6)
  SI = normal IC50 / cancer IC50: 30.5
A-172 cells; A-172 (GBM), 72 hrs, WST-1 (Table 1)
  IC50: 1.21 µM
A-172 cells; A-172 (GBM), 72 hrs, WST-1 (Table 2)
  Maximal efficacy, cytotoxicity (%) at 100 μM: 98.08%
A-172 cells; A-172 (GBM), 72 hrs, WST-1 (Table 4)
  IC50: 1.29 µM
A-172 cells; A-172 (GBM), 72 hrs, WST-1 (Table 5)
  Maximal efficacy: 80.9%
A-172 cells; GBM indication as a whole (A-172 and U-87 MG), vs iAstro
  Selectivity index towards hiPSC-derived astrocytes, GBM: 14.9±0.8
MIA PaCa-2 cells; MIA PaCa-2 (PaC) vs HME-1 (Table 3)
  SI = HME-1 IC50/cancer IC50: 0.79
MIA PaCa-2 cells; MIA PaCa-2 (PaC), 72 hrs, WST-1 (Table 1), read-out: Absolute IC50
  IC50: 46.8 µM
MIA PaCa-2 cells; MIA PaCa-2 (PaC), 72 hrs, WST-1 (Table 2)
  Maximal efficacy, cytotoxicity (%) at 100 μM: 65.41%
MDA-MB-468 cells; MDA-MB-468 (TNBC) vs HME-1 (Table 3)
  SI = HME-1 IC50/cancer IC50: 20.94
MDA-MB-468 cells; MDA-MB-468 (TNBC), 72 hrs, WST-1 (Table 1), read-out: Absolute IC50
  IC50: 1.76 µM
MDA-MB-468 cells; MDA-MB-468 (TNBC), 72 hrs, WST-1 (Table 2)
  Maximal efficacy, cytotoxicity (%) at 100 μM: 87.18%
DU145 cells; DU145 (PrC) vs HME-1 (Table 3)
  SI = HME-1 IC50/cancer IC50: 5.25
DU145 cells; DU145 (PrC), 72 hrs, WST-1 (Table 1), read-out: Absolute IC50
  IC50: 7.02 µM
DU145 cells; DU145 (PrC), 72 hrs, WST-1 (Table 2)
  Maximal efficacy, cytotoxicity (%) at 100 μM: 79.25%
HCT-116 cells; HCT-116 (CrC) vs HME-1 (Table 3)
  SI = HME-1 IC50/cancer IC50: 3.34
HCT-116 cells; HCT-116 (CrC), 72 hrs, WST-1 (Table 1), read-out: Absolute IC50
  IC50: 11.1 µM
HCT-116 cells; HCT-116 (CrC), 72 hrs, WST-1 (Table 2)
  Maximal efficacy, cytotoxicity (%) at 100 μM: 67.49%
MDA-MB-231 cells; MDA-MB-231 (TNBC) vs HME-1 (Table 3)
  SI = HME-1 IC50/cancer IC50: 3.85
MDA-MB-231 cells; MDA-MB-231 (TNBC), * towards HUVEC cells (Table 6)
  SI = HUVEC IC50 / cancer IC50: *23.6
MDA-MB-231 cells; MDA-MB-231 (TNBC), selectivity towards HME-1 cells (Table 6)
  SI = normal IC50 / cancer IC50: 20.9
MDA-MB-231 cells; MDA-MB-231 (TNBC), 72 hrs, WST-1 (Table 1)
  IC50: 9.57 µM
MDA-MB-231 cells; MDA-MB-231 (TNBC), 72 hrs, WST-1 (Table 2)
  Maximal efficacy, cytotoxicity (%) at 100 μM: 71.20%
MDA-MB-231 cells; MDA-MB-231 (TNBC), 72 hrs, WST-1 (Table 4)
  IC50: 9.57 µM
MDA-MB-231 cells; MDA-MB-231 (TNBC), 72 hrs, WST-1 (Table 5)
  Maximal efficacy: 71.2%
